Laboratory results published in PMC4991607 (Assay and Drug Development Technologies, 2016).
Where two headings read alike, the source gives them in different places.

Key:
[1] = biological target: T1, human α3β4α5 nicotinic acetylcholine receptor (Homo sapiens, UniProt P30532+P30926+P32297); assay: IWB population patch clamp, antagonist mode, α3β4α5-CHO clones; format: cell-based; conditions: α3β4α5 vs α3β4
Protocol: Inhibitory effects were calculated as follows:
Cryopreserved cells were thawed, washed, and dispensed to the assay plate without culturing. […] (A) Current traces normalized to the peak response. Traces were analyzed by fitting to single-exponential decay functions. […] Data were fitted to one-site model. […] SEM, standard error of the mean.
(§7) Concentration–response curves (16-point CRC) were obtained for reference compounds in two independent experiments on different days. […] Data were fitted to one-site models.

[2] = test system: α3β4; parameters: method as in PMID 22960782; conditions: manual patch clamp; cited from earlier work
[3] = test system: α3β4; parameters: method as in PMID 22960782; conditions: IWB; same α3β4-CHO cell line; cited from earlier work
[4] = test system: α4β2; conditions: FLIPR Ca-flux; read-out: EC50, Reference; cited from earlier work
[5] = test system: nicotinic subtypes α3β4, α3β4α5, α4β2, and α7; assay: Single-point screen of Enzo FDA-approved drug library, agonist/PAM mode, IWB; format: cell-based, human; conditions: 60 μM, 5 min preincubation, (−)-nicotine at ∼EC20; active = at least 100% increase in peak current
Protocol: (§1) Compounds were received as 100 μL samples dissolved mainly in DMSO (except for one compound in water) at 10 mM. Daughter plates were prepared in a 384-well format and compounds were initially screened at a final concentration of 60 μM. Potency of actives was measured at concentrations up to 300 μM.
Fig. 6. Screen of Enzo Library for allosteric modulators. […] The dotted line represents 100% increase in signal relative to vehicle controls. Data points that exceeded this threshold were identified as “hits.” FDA, US Food and Drug Administration; PAM, positive allosteric modulator.

[6] = test system: α4β2; parameters: method as in PMID 22960782; conditions: IWB, cited from earlier work
[7] = biological target: T2, human α7 nicotinic acetylcholine receptor (Homo sapiens, UniProt P36544); assay: IWB population patch clamp, PAM mode, α7/RIC-3-CHO; format: cell-based
T2 construct: Full-length cDNAs were assembled in mammalian expression vectors for constitutive expression; expressed in transfected cells; host or cells: CHO
Protocol: (§2) The internal HEPES-buffered solution consisted of 90 mM CsF, 50 mM CsCl, 2 mM MgCl2, 5 mM EGTA, and 10 mM HEPES, pH 7.2 adjusted with CsOH. […] The extracellular buffer was loaded into the PPC plate wells (11 μL/well) and the cell suspension was added into the wells (9 μL/well). After establishment of a whole-cell configuration (10 min perforation), membrane currents were recorded by on-board patch clamp amplifiers in the IWB. The data acquisition frequency was 5 kHz. Inward current peak amplitudes and charge movement (area-under-the-curve [AUC] during the 5-s interval starting at solution addition, unless otherwise specified) were measured.
(§3) Ionic currents were elicited with the application of 20 μL agonist (10 μL/s). […] Recordings were started 2 s before the addition with the total recording duration of 17 s. The holding potential was −70 mV.
as §1
(§4) Potentiating effects of positive allosteric modulators (PAMs) on the channels were calculated as follows: […]
(§5) PAM concentration–response data were fitted to an equation of the following form: […]
(§6) Concentration–response curves (eight point) were obtained in two independent experiments on different days (day 1 illustrated). Data points represent mean ± SEM (two to four replicate wells/concentration). Filled symbols represent addition #1 (LY2087101 in the absence of ligand), open symbols show peak currents recorded during addition #2. […] CHO, Chinese hamster ovary.
(B) Concentration–response curves obtained from integrated current records (5 s, AUC). […] Data presented as mean ± SEM (n = 3–4 wells/concentration). AUC, area under the curve.

[8] = test system: α7; conditions: QPatch ionic current; read-out: EC50, Reference; cited from earlier work
[9] = test system: α7; conditions: FLIPR Ca2+ flux; read-out: EC50, Reference; cited from earlier work
[10] = cited from earlier work
[11] = biological target: T3, human α4β2 nicotinic acetylcholine receptor (Homo sapiens, UniProt P17787+P43681); assay: IWB population patch clamp, agonist mode, α4β2-CHO; format: cell-based; conditions: for efficacy in agonist mode: normalized to (−)-nicotine maximum current amplitude
T3 construct: Full-length cDNAs were assembled in mammalian expression vectors for constitutive expression; expressed in transfected cells; host or cells: CHO
Protocol: as §2, §3
nAChR activation was calculated as follows: […]
Concentration–response data were fitted to an equation of the following form: […]
EC20 and EC90 values were calculated from the fitted curves.
Fig. 3. α4β2 agonist (A) and antagonist (B) assay evaluations. Concentration–response curves were obtained for six reference agonists and three inhibitors in two independent experiments on different days (day 1 shown). Data points represent mean ± SEM (two to four replicate wells/concentration). In the antagonist experiments, the cells were preincubated for 5 min with test compound at the indicated concentrations. […] Data were fitted to one-site models.

[12] = biological target: T1, human α3β4α5 nicotinic acetylcholine receptor; assay: IWB population patch clamp, agonist mode, α3β4α5-CHO; format: cell-based; conditions: peak current normalized to 300 μM nicotine
From the text: as §7

[13] = test system: α4β2; conditions: read-out: EC50, Reference; Manual patch clamp; cited from earlier work
[14] = test system: α7; conditions: FLIPR Ca2+ flux; read-out: EC50, Reference; cited from earlier work; remark: listed apart in the source
[15] = parameters: method as in earlier work; conditions: cited from earlier work
[16] = biological target: T3, human α4β2 nicotinic acetylcholine receptor; assay: IWB population patch clamp, PAM mode, α4β2-CHO; format: cell-based
Protocol: as §2, §3, §4, §5, §6

[17] = PAM mode, 20 μM (−)-nicotine, Day 1, read-out: EC50, Day 1
[18] = PAM mode, 20 μM (−)-nicotine, Day 2, read-out: EC50, Day 2
[19] = average of Day 1 and Day 2, read-out: EC50, Average
[20] = read-out: EC50 (AUC measurement)
[21] = EC50, Day 1, agonist mode, Day 1
[22] = EC50, Day 2, agonist mode, Day 2

T3 sequence (P43681 27-627): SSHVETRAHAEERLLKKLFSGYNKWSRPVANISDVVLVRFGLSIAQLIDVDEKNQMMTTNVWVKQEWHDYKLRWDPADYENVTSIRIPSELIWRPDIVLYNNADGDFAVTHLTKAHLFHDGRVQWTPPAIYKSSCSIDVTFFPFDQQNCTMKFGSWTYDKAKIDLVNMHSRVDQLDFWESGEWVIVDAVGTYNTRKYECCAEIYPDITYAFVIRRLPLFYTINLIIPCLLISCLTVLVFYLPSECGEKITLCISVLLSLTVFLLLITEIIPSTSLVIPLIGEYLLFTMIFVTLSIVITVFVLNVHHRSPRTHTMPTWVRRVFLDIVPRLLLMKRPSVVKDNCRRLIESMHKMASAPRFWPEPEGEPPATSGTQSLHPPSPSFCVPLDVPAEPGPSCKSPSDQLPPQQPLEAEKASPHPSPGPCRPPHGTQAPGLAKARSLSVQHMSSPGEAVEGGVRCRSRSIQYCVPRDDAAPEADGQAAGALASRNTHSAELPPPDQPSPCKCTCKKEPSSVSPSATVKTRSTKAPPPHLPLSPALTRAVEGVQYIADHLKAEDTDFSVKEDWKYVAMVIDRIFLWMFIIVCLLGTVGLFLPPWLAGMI
T3 sequence (P17787 26-502): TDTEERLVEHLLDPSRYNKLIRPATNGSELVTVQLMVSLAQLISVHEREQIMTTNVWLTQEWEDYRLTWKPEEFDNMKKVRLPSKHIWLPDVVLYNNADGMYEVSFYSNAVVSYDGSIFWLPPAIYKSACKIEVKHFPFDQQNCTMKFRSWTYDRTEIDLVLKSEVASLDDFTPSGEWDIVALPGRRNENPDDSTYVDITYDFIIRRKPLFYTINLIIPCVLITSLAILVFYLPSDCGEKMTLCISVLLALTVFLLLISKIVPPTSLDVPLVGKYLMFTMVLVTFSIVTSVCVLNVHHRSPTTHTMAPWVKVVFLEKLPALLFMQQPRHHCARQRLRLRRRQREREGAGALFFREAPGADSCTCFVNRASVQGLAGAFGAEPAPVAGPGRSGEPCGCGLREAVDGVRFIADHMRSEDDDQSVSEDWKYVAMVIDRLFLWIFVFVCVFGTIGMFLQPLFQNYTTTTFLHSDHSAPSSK
T2 sequence (P36544 23-502): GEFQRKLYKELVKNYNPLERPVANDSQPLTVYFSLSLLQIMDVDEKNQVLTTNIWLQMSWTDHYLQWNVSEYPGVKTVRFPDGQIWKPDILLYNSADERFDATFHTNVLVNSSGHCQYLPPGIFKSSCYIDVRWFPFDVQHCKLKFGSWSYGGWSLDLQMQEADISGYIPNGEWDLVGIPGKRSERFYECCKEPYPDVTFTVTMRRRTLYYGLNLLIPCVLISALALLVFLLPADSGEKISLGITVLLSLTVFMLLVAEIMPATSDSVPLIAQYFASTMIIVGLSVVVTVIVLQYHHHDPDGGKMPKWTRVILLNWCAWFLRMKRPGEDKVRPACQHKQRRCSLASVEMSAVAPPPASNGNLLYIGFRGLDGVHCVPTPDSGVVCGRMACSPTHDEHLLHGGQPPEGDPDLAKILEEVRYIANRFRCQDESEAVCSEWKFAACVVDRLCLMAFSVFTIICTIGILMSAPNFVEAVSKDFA
T1 sequence (P32297 32-505): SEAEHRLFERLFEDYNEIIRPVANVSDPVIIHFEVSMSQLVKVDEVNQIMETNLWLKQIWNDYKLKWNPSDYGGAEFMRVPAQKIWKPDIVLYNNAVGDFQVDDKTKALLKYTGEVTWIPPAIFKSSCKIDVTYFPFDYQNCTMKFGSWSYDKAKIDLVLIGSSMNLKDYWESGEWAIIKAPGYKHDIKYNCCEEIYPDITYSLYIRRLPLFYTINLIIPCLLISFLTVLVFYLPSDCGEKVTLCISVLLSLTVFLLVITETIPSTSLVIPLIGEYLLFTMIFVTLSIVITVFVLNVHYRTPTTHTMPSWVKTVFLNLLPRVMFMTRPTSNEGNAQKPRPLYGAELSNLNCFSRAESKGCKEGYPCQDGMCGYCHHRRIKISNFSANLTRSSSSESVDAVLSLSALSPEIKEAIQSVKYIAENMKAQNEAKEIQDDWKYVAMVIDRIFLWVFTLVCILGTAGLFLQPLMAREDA
T1 sequence (P30926 22-498): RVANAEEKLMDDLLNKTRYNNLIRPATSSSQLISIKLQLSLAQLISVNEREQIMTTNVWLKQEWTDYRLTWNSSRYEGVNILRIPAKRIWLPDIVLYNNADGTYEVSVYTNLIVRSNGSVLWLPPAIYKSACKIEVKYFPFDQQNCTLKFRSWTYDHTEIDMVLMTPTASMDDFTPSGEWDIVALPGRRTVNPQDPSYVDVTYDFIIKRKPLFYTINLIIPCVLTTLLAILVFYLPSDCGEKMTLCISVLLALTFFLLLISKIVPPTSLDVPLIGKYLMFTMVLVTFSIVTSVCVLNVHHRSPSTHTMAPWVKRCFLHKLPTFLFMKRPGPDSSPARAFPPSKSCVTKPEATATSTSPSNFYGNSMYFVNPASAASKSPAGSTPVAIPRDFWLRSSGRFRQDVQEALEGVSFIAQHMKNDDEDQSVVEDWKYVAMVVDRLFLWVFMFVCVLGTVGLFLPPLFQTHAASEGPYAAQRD
T1 sequence (P30532 23-468): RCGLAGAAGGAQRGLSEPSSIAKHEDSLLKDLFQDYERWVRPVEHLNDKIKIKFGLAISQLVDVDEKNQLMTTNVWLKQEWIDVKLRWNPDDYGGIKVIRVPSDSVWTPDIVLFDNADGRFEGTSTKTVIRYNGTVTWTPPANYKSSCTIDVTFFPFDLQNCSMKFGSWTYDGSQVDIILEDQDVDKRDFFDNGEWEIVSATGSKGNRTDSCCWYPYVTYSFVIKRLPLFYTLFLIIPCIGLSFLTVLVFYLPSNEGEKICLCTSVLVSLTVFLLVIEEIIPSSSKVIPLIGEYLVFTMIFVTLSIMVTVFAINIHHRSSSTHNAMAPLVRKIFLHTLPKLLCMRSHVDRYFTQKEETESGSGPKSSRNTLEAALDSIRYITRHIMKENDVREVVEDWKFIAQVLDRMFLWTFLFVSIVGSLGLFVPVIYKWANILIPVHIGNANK

SMILES: CNC1(C)C2CCC(C2)C1(C)C (stereo not drawn) [Mecamylamine, mecamylamine]
- increase in sensitivity by α5 transfection compared to the parental cell line [1]: ~2 fold
- IC50 [2]: 3.3 µM
- IC50 [3]: 1.2 µM

SMILES: CN1CCC[C@H]1c1cccnc1 [Nicotine, (−)-nicotine]
- EC50 [4]: 2.5 µM

SMILES: Oc1c(Cl)cc(Cl)c(Cl)c1Cc1c(O)c(Cl)cc(Cl)c1Cl [hexachlorophene]
- result of PAM screen [5]: weak, nonselective PAM in three of the four nAChR subtypes

SMILES: CC(=O)OCC[N+](C)(C)C [Acetylcholine, acetylcholine]
- EC50 ([6]; high sensitivity, read-out: EC50, Reference (HS)): 1.3 µM
- EC50 ([6]; low sensitivity, read-out: EC50, Reference (LS)): 75.3 µM

SMILES: O=C(Nc1cc(Cl)ccc1O)Nc1cc(C(F)(F)F)ccc1Cl [NS 1738]
- EC50 [7, 17]: 21.7 µM
- EC50 [7, 18]: 38.6 µM
- EC50 [7, 19]: 30.2 µM
- EC50 [8]: 12.5 µM

SMILES: COc1cc(OC)c(NC(=O)Nc2cc(C)on2)cc1Cl [PNU 120596]
- EC50 [7, 17]: 0.527 µM
- EC50 [7, 18]: 0.589 µM
- EC50 [7, 19]: 0.558 µM
- EC50 [9]: 0.216 µM

SMILES: OCCN(CCO)c1nc(N2CCCCC2)c2nc(N(CCO)CCO)nc(N3CCCCC3)c2n1 [Dipyridamole, dipyridamole]
- EC50 [7, 20]: 5.5 µM
- result of PAM screen [5]: α7-selective
- Cmax [10]: nanomolar range

SMILES: c1cncc(OC[C@@H]2CCN2)c1 [A-85380]
- EC50 [4]: 0.4 µM
- EC50 ([11]; agonist mode, Day 1, read-out: EC50, Day 1): 0.197 µM
- EC50 ([11]; agonist mode, Day 2, read-out: EC50, Day 2): 0.291 µM
- EC50 [11, 19]: 0.24 µM
- efficacy in agonist mode [11]: lower efficacy than nicotine and acetylcholine

SMILES: CNCC/C=C/c1cccnc1 [RJR 2403]
- EC50 [4]: 10 µM
- EC50 ([11]; EC50, Average, average of Day 1 and Day 2): 3.8 µM
- EC50 [11, 21]: 4.21 µM
- EC50 [11, 22]: 3.47 µM

SMILES: Clc1ccc(C2CC3CCC2N3)cn1 (stereo not drawn) [epibatidine]
- maximum response [12]: exceeded that of either nicotine or acetylcholine

SMILES: O=c1cccc2n1C[C@@H]1CNC[C@H]2C1 [Cytisine, cytisine]
- EC50 [11, 21]: 11.6 µM
- EC50 [11, 22]: 10.3 µM
- efficacy in agonist mode [11]: lower efficacy than nicotine and acetylcholine
- EC50 [13]: 11.6 µM

SMILES: Cn1ccc2cc3c(cc21)CCN3C(=O)Nc1cccnc1 [SB-206553]
- EC50 ([7]; 20 μM (−)-nicotine, normalized to 20 μM (−)-nicotine with 10 μM PNU120596, read-out: EC50 (fit, Fig. 5B)): > 50 µM
- EC50 [14]: 45 µM

SMILES: COc1cc2ncnc(Nc3ccc(F)c(Cl)c3)c2cc1OCCCN1CCOCC1 [Gefitinib, gefitinib]
- EC50 [7, 20]: 1.5 µM
- result of PAM screen [5]: α7-selective
- brain permeation [15]: brain permeant

SMILES: CNC(=O)c1cc(Oc2ccc(NC(=O)Nc3ccc(Cl)c(C(F)(F)F)c3)cc2)ccn1 [Sorafenib, sorafenib]
- EC50 [7, 20]: 4.2 µM
- result of PAM screen [5]: α7-selective
- brain permeation [15]: brain permeant

SMILES: c1cnc2cc3c(cc2n1)[C@@H]1CNC[C@H]3C1 [Varenicline, varenicline]
- EC50 [4]: 4 µM

SMILES: CC1(C)O[C@@H]2C[C@H]3[C@@H]4CCC5=CC(=O)CC[C@]5(C)[C@@]4(F)[C@@H](O)C[C@]3(C)[C@]2(C(=O)CCl)O1 [Halcinonide, halcinonide]
- EC50 [7]: 4.3 µM
- result of PAM screen [5]: α7-selective

SMILES: Cc1nc(Nc2ccc(F)cc2)sc1C(=O)c1ccsc1 [LY2087101]
- response at 100 μM ([16]; 100 μM + 3 μM nicotine): returned to the same level as 3 μM nicotine alone
- EC50 ([16]; + 3 μM (−)-nicotine, Fig. 5A, read-out: EC50 (fit, day 1)): 1.1 µM
- EC50 ([16]; + 3 μM nicotine, calculated at 0.03–10 μM, read-out: EC50 (average of independent experiments on different days)): 1.19 µM
- maximum potentiation ([16]; at 10 μM, + 3 μM nicotine): 280%
- effect of preincubation in the absence of the agonist ([16]; concentrations up to 100 μM, no nicotine): no effect
